Assay results: paper PMC10413841, “Exploration of Thiourea-Based Scaffolds for the Construction of Bacterial Ureases Inhibitors” (ACS Omega, 2023)
Where “and” joins values, the source holds several entries; their conditions need not be identical. Equal entries are not always repeated. Where two headings read alike, the source gives them in different places.

Key:
[1] = system: live cells of S. pasteurii CCM 2056; assay: Whole-cell ureolysis: ammonia release from urea in live cells; type: cell-based, Sporosarcina pasteurii; conditions: Sporosarcina pasteurii, CCM2056
[2] = system: live cells of P. mirabilis PCM 543; assay: as above; type: cell-based, Proteus mirabilis; conditions: Proteus mirabilis, urea hydrolysis in live cells; 30 mM urea; 10 mM PBS; read-out: IC50 [μM] (± SD) P. mirabilis cells
Experimental: Proteus mirabilis PCM 543 was cultured as described for S. pasteurii except for nickel ions—0.3 mM NiCl2 was used in the growth medium. Cells harvested by centrifugation were resuspended in 10 mM PBS and used for urease activity measurements. Assays were conducted in 10 mM PBS containing 30 mM urea and different concentrations of urease inhibitors and ammonia quantified by indophenol assay.

[3] = target: T1, native S. pasteurii CCM 2056 urease (Sporosarcina pasteurii, UniProt P41020); assay: Inhibition of purified native urease, indophenol (Berthelot) ammonia assay; type: biochemical; conditions: for Ki: purified native enzyme, EI dissociation constant from Lineweaver-Burke plots, urea up to 30 mM, 3 mM phosphate buffer, read-out: Ki [μM] (± SD)
T1 construct: The S. pasteurii CCM 2056 cells were used as the source of a native enzyme; endogenous in cells; host or cells: S. pasteurii CCM 2056 culture; endogenous enzyme purified in house from the sonicated cell extract by five-step chromatography
T1 sequence (P41022 whole entry): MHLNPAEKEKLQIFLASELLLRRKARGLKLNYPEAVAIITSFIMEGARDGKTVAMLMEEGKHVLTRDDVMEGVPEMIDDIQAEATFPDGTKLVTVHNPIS
T1 sequence (P41021 whole entry, further chain): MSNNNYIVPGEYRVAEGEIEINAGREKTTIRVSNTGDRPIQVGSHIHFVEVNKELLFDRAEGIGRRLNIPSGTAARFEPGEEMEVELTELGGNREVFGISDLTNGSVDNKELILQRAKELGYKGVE
T1 sequence (P41020 whole entry): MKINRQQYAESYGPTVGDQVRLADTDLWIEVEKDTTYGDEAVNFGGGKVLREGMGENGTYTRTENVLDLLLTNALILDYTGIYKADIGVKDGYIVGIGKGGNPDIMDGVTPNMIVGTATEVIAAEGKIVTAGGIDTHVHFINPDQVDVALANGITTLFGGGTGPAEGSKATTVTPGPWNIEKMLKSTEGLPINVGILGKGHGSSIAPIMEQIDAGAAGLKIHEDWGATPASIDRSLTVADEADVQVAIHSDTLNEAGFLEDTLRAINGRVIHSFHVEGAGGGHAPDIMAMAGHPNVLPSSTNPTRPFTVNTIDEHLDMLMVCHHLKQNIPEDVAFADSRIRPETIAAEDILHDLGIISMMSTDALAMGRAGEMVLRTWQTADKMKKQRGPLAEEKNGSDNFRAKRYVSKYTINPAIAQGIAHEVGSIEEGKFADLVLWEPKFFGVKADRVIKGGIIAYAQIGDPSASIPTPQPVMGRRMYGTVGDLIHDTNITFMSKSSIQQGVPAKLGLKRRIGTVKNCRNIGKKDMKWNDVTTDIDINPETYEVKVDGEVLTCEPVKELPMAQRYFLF
Experimental: The kinetic properties of the compounds as potential urease inhibitors were evaluated against native enzyme purified from S. pasteurii CCM 2056 culture. Residual enzyme activity was expressed as ammonia release from urea followed quantitively using the Berthelot reaction. All of the studied structures were reversibly inhibitory, with dissociation constants ranging from submicromolar to moderate micromolar concentrations (Table 1). The α quantifier between the enzyme-substrate-inhibitor complex (ESI) dissociation constant Ki* and the EI dissociation constant Ki [drawing 1] was calculated to determine the influence of substrate binding on the stability of the EI complex. […] For modeled compounds 19, 16, and 29, the values of α were 152.01, 38.04, and 14.52, respectively. […] For comparison, the α value of compound 52 was 1.37.
The S. pasteurii CCM 2056 cells were used as the source of a native enzyme. The culture medium was made of 20 g/L yeast extract. One day after the inoculation, the medium was further supplemented with 1 mM NiCl2 and 1% urea. After 2 more days of growth, the cells were centrifuged and disintegrated via sonication. Enzyme purification from the cell extract was conducted using a five-step chromatographic method as previously reported.[50]
Inhibition of the purified urease was measured using the indophenol assay for ammonia concentration.[65] The kinetic assays in 3 mM phosphate buffer contained the purified enzyme, studied thiourea analogues, and a range of urea concentrations up to saturating 30 mM. Total progress curves were analyzed with the addition of the enzyme at the reaction start. Assays were terminated with the sequential addition of 100 μL of M1 ([…] sodium nitroprusside, 0.53 M phenol) and M2 (0.625 M sodium hydroxide, 47.1 mM sodium hypochlorite) solution to 50 μL of reaction mixture sample. After 15 min of color development, absorbance at 650 nm was measured. […] In order to verify the inhibition mode as well as calculate the dissociation constant for EI complex, Lineweaver–Burke curves were plotted (1/v = f(1/[S])). For noncompetitive or mixed inhibition mode, Ki was calculated from plots of the LB curves slope as a function of inhibitor concentration.

[4] = urea hydrolysis in live cells, 30 mM urea, 10 mM PBS, read-out: IC50 [μM] (± SD) S. pasteurii cells

Compound	IC50 [1, 4] [µM]	Ki [3]	also measured
NC(=S)N/N=C/c1ccccc1 [Compound 15, (E)-2-Benzylidenehydrazine-1-carbothioamide]	3.83 ± 0.282	3.57 ± 0.182 µM	IC50 ([1]; Gram-positive S. pasteurii cells, ureolysis inhibition, read-out: IC50 in S. pasteurii cells (unit inferred)): 3.8 ± 0.2 µM; IC50 [2]: 347 ± 23.1 µM
Cc1ccc(/C=N/NC(N)=S)cc1 [Compound 16, (E)-2-(4-Methylbenzylidene)hydrazine-1-carbothioamide]	9.92 ± 1.31	0.99 µM and 0.998 µM	IC50 [2]: 282 ± 32.4 µM; α quantifier between ESI dissociation constant Ki* and EI dissociation constant Ki ([3]; purified S. pasteurii urease): 38.04
NC(=S)N/N=C/c1ccc(Cl)cc1 [Compound 17, (E)-2-(4-Chlorobenzylidene)hydrazine-1-carbothioamide]	16.4 ± 0.94	8.15 ± 0.908 µM	IC50 [2]: 454 ± 26.3 µM
COc1ccc(/C=N/NC(N)=S)cc1OC [Compound 18, (E)-2-(3,4-Dimethoxybenzylidene)hydrazine-1-carbothioamide]		37.5 ± 4.79 µM	
COc1ccc(C(/C=C/c2ccccc2)=N/NC(N)=S)c(OC)c1 [Compound 26, (E)-2-((E)-1-(2,4-Dimethoxyphenyl)-3-phenylallylidene)hydrazine-1-carbothioamide]	134 ± 11.4	3.02 ± 0.23 µM	type (mode) of inhibition ([3]; purified S. pasteurii urease): noncompetitive
NNC(=S)N/N=C(\C=C\c1ccccc1)c1ccccc1 [Compound 29, N′-((1E,2E)-1,3-Diphenylallylidene)hydrazinecarbothiohydrazide]		2.24 µM	α quantifier between ESI dissociation constant Ki* and EI dissociation constant Ki ([3]; purified S. pasteurii urease): 14.52
Cc1ccc(/C=C/C(=N\NC(=S)NN)c2ccccc2)cc1 [Compound 30, N′-((1E,2E)-1-Phenyl-3-(p-tolyl)allylidene)hydrazinecarbothiohydrazide]	553 ± 27.8	59.5 ± 4.4 µM	
NNC(=S)N/N=C(\C=C\c1ccc(Cl)cc1)c1ccccc1 [Compound 31, N′-((1E,2E)-3-(4-Chlorophenyl)-1-phenylallylidene)hydrazinecarbothiohydrazide]	132 ± 6.9	12.8 ± 1.54 µM	
NC(=S)N1N=C(c2ccccc2)CC1c1ccccc1 (centres unmarked) [Compound 32, 3,5-Diphenyl-4,5-dihydro-1H-pyrazole-1-carbothioamide]		71.7 ± 8.26 µM	
Cc1ccc(C2CC(c3ccccc3)=NN2C(N)=S)cc1 (centres unmarked) [Compound 33, 3-Phenyl-5-(p-tolyl)-4,5-dihydro-1H-pyrazole-1-carbothioamide]		87.1 ± 9.29 µM	
NC(=S)N1N=C(c2ccccc2)CC1c1ccc(Cl)cc1 (centres unmarked) [Compound 34, 5-(4-Chlorophenyl)-3-phenyl-4,5-dihydro-1H-pyrazole-1-carbothioamide]		30.5 ± 2.84 µM	
NC(=S)N1N=C(c2ccccc2)CC1c1ccc(F)cc1 (centres unmarked) [Compound 35, 5-(4-Fluorophenyl)-3-phenyl-4,5-dihydro-1H-pyrazole-1-carbothioamide]		46.5 ± 6.3 µM	
COc1ccc(C2=NN(C(N)=S)C(c3ccccc3)C2)c(OC)c1 (centres unmarked) [Compound 36, 3-(2,4-Dimethoxyphenyl)-5-phenyl-4,5-dihydro-1H-pyrazole-1-carbothioamide]		57.7 ± 4.42 µM	
SC1=NC(c2ccccc2)=CC(c2ccccc2)N1 (centres unmarked) [Compound 37, 4,6-Diphenyl-3,4-dihydropyrimidine-2(1H)-thione]		36.2 ± 5.2 µM	
Cc1ccc(C2C=C(c3ccccc3)NC(=S)N2)cc1 (centres unmarked) [Compound 38, 6-Phenyl-4-(p-tolyl)-3,4-dihydropyrimidine-2(1H)-thione]		27.4 ± 3.47 µM	
S=C1NC(c2ccccc2)=CC(c2ccc(Cl)cc2)N1 (centres unmarked) [Compound 39, 4-(4-Chlorophenyl)-6-phenyl-3,4-dihydropyrimidine-2(1H)-thione]		30.2 ± 4.23 µM	
Fc1ccc(C2C=C(c3ccccc3)NC(=S)N2)cc1 (centres unmarked) [Compound 40, 4-(4-Fluorophenyl)-6-phenyl-3,4-dihydropyrimidine-2(1H)-thione]		5.55 ± 0.873 µM	
COc1ccc(C2=CC(c3ccccc3)NC(=S)N2)c(OC)c1 (centres unmarked) [Compound 41, 6-(2,4-Dimethoxyphenyl)-4-phenyl-3,4-dihydropyrimidine-2(1H)-thione]		47.7 ± 6.31 µM	
COc1ccc(-c2csc(NC(=S)NCc3ccccc3)n2)cc1 [Compound 50, 1-Benzyl-3-(4-(4-methoxyphenyl)thiazol-2-yl)thiourea]		41.4 ± 3.73 µM	
